Experiments:
barnyardgrass [1] = assay: Test B pre-/postemergence herbicide test; assay type: in vivo, Echinochloa crus-galli
Outline: (§1)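 Evaluation is visual, comparing treated with control plants on a scale where 0 means no effect and 100 means full control. Treatments were preemergence, or postemergence on seedlings 2–18 cm tall, and held 13–15 days in the greenhouse.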

Surinam grass = assay: Test B pre-/postemergence herbicide test; assay type: in vivo, Urochloa decumbens
Outline: (§2)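 Herbicidal effect was judged by eye on a 0–100 scale after plants stood 13 to 15 days in the greenhouse following pre- or postemergence treatment with surfactant-containing formulations.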

cocklebur = assay: Test B pre-/postemergence herbicide test; assay type: in vivo, Xanthium strumarium
Outline: as §1

corn = assay: Test B pre-/postemergence herbicide test; assay type: in vivo, Zea mays
Outline: as §2

large crabgrass = assay: Test B pre-/postemergence herbicide test; assay type: in vivo, Digitaria sanguinalis
Outline: as §2

giant foxtail = assay: Test B pre-/postemergence herbicide test; assay type: in vivo, Setaria faberi
Outline: as §2

lambsquarters = assay: Test B pre-/postemergence herbicide test; assay type: in vivo, Chenopodium album
Outline: as §2

morningglory = assay: Test B pre-/postemergence herbicide test; assay type: in vivo, Ipomoea coccinea
Outline: as §1

pigweed = assay: Test B pre-/postemergence herbicide test; assay type: in vivo, Amaranthus retroflexus
Outline: as §2

rice [2] = assay: Test B pre-/postemergence herbicide test; assay type: in vivo, Oryza sativa; details: preemergence
Outline: as §2

velvetleaf = assay: Test B pre-/postemergence herbicide test; assay type: in vivo, Abutilon theophrasti
Outline: as §2

blackgrass = assay: Test B postemergence herbicide test; assay type: in vivo, Alopecurus myosuroides
Outline: (§3)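 Each value is a visual 0–100 response rating taken against controls 13 to 15 days after treatment in the greenhouse. Plants received formulated chemical postemergence at the 1- to 4-leaf stage or, in flooded paddy, at the 2-leaf stage.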

wheat = assay: Test B postemergence herbicide test; assay type: in vivo, Triticum aestivum; set-up: key to Wheat plant response rating: 0 = no effect, 100 = complete control
Outline: (§4)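 Greenhouse test; postemergence application to plants at 1–4 leaves (2–18 cm); paddy species at 2 leaves; evaluated visually vs controls at 13–15 days; scale 0–100 (100 = complete control).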

wild oat = assay: Test B postemergence herbicide test; assay type: in vivo, Avena fatua
Outline: as §4

rice [3] = assay: Test B flooded paddy test; assay type: in vivo, Oryza sativa; details: 1000 g ai/ha, scale 0 to 100 (0 no effect, 100 complete control)
Outline: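 Treated at 2-leaf (paddy) or 1–4-leaf, 2–18 cm (postemergence); greenhouse 13–15 d; visual score vs control, 0 none to 100 complete control; dash = not tested.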

[4] = system: small flower umbrella sedge; assay: Test B flooded paddy test; assay type: in vivo, Cyperus difformis; details: 1000 g ai/ha, scale 0 to 100 (0 no effect, 100 complete control)
Outline: as §3

ducksalad [5] = assay: Test B flooded paddy test; assay type: in vivo, Heteranthera limosa; details: 1000 g ai/ha, scale 0 to 100 (0 no effect, 100 complete control)
Outline: as §3

barnyardgrass [6] = assay: Test B flooded paddy test; assay type: in vivo, Echinochloa crus-galli; details: 1000 g ai/ha, scale 0 to 100 (0 no effect, 100 complete control)
Outline: as §3

rice [7] = assay: Test C flooded paddy test; assay type: in vivo, Oryza sativa; details: for Plant response rating, Rice: 500 g ai/ha, visual rating after 12 to 14 days
Outline: (§5)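 Plants were grown to the 1- to 4-leaf stage (2–18 cm) and then treated postemergence, or grown to the 2-leaf stage for the flooded paddy test. They were held in a greenhouse for 12 to 14 days and then scored by eye against controls, where 0 is no effect and 100 is complete control.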

[8] = system: smallflower umbrella sedge; assay: Test C flooded paddy test; assay type: in vivo, Cyperus difformis; details: for Plant response rating, Sedge, Umbrella: 500 g ai/ha, visual rating after 12 to 14 days
ducksalad [9] = assay: Test C flooded paddy test; assay type: in vivo, Heteranthera limosa; details: for Plant response rating, Ducksalad: 500 g ai/ha, visual rating after 12 to 14 days
barnyardgrass [10] = assay: Test C flooded paddy test; assay type: in vivo, Echinochloa crus-galli; details: for Plant response rating, Barnyardgrass: 500 g ai/ha, visual rating after 12 to 14 days
Outline: as §5

[11] = Postemergence, 500 g ai/ha, visual rating after 13 to 15 days, scale 0 (no effect) to 100 (complete control)
[12] = Preemergence, 500 g ai/ha, scale 0 to 100
[13] = postemergence, 125 g ai/ha, visual rating, scale 0 (no effect) to 100 (complete control)
[14] = preemergence, 125 g ai/ha, 0 to 100 scale, 0 is no effect, 100 is complete control
[15] = Postemergence, 500 g ai/ha; visual rating after 13 to 15 days, scale 0 (no effect) to 100 (complete control)
[16] = postemergence, 125 g ai/ha; visual rating, scale 0 (no effect) to 100 (complete control)
[17] = preemergence, 125 g ai/ha; 0 to 100 scale, 0 is no effect, 100 is complete control
[18] = 62 g ai/ha, scale 0 to 100 (0 no effect, 100 complete control)
[19] = 125 g ai/ha, scale of 0 to 100, 0 is no effect, 100 is complete control
[20] = 250 g ai/ha, scale of 0 to 100, 0 is no effect, 100 is complete control
[21] = scale 0 to 100 (0 no effect, 100 complete control)
[22] = 125 g ai/ha, 0 is no effect, 100 is complete control, preemergence
[23] = 125 g ai/ha, visual rating, scale 0 (no effect) to 100 (complete control), postemergence
[24] = 500 g ai/ha, visual rating, 0 = no effect, 100 = complete control, preemergence
[25] = postemergence, 500 g ai/ha, scale 0 to 100, 0 is no effect, 100 is complete control
[26] = 125 g ai/ha; 0 is no effect, 100 is complete control; preemergence
[27] = 125 g ai/ha; visual rating, scale 0 (no effect) to 100 (complete control); postemergence
[28] = 500 g ai/ha; visual rating, 0 = no effect, 100 = complete control; preemergence
[29] = postemergence, 500 g ai/ha; scale 0 to 100, 0 is no effect, 100 is complete control
[30] = 125 g ai/ha, scale 0 to 100 (0 no effect, 100 complete control)

Compound: CCn1nc(C(C)(C)C)cc1C(=O)Nc1cc(C(=O)OC)c(OC)cc1F [Compound 75]
- Plant response rating, Barnyardgrass (barnyardgrass [1]; [11]): 20
- Barnyardgrass plant response rating (barnyardgrass [1]; [12]): 90
- Barnyardgrass plant response rating (barnyardgrass [1]; [13]): 10
- Plant response rating, Barnyardgrass (barnyardgrass [1]; [14]): 50
- Plant response rating, Surinam Grass (Surinam grass; [15]): 20
- Surinam Grass plant response rating (Surinam grass; [16]): 10
- Plant response rating, Surinam Grass (Surinam grass; [17]): 30
- Plant response rating, Cocklebur (cocklebur; [11]): 30
- Cocklebur plant response rating (cocklebur; [12]): 10
- Cocklebur plant response rating (cocklebur; [13]): 10
- Plant response rating, Cocklebur (cocklebur; [14]): 0
- Plant response rating, Corn (corn; [11]): 20
- Corn plant response rating (corn; [12]): 30
- Corn plant response rating (corn; [13]): 10
- Plant response rating, Corn (corn; [14]): 0
- Plant response rating, Crabgrass, Large (large crabgrass; [11]): 10
- Crabgrass, Large plant response rating (large crabgrass; [12]): 70
- Crabgrass, Large plant response rating (large crabgrass; [13]): 10
- Plant response rating, Crabgrass, Large (large crabgrass; [14]): 10
- Plant response rating, Foxtail, Giant (giant foxtail; [11]): 20
- Foxtail, Giant plant response rating (giant foxtail; [12]): 90
- Foxtail, Giant plant response rating (giant foxtail; [13]): 20
- Plant response rating, Foxtail, Giant (giant foxtail; [14]): 30
- Plant response rating, Lambsquarters (lambsquarters; [15]): 40
- Lambsquarters plant response rating (lambsquarters; [16]): 40
- Plant response rating, Lambsquarters (lambsquarters; [17]): 20
- Plant response rating, Morningglory (morningglory; [15]): 50
- Morningglory plant response rating (morningglory; [16]): 20
- Plant response rating, Morningglory (morningglory; [17]): 0
- Plant response rating, Pigweed (pigweed; [15]): 70
- Pigweed plant response rating (pigweed; [16]): 50
- Plant response rating, Pigweed (pigweed; [17]): 50
- Plant response rating, Rice (rice [2]; 125 g ai/ha, 0 to 100 scale, 0 is no effect, 100 is complete control): 40
- Plant response rating, Velvetleaf (velvetleaf; [15]): 20
- Velvetleaf plant response rating (velvetleaf; [16]): 20
- Plant response rating, Velvetleaf (velvetleaf; [17]): 20
- Plant response rating, Blackgrass (blackgrass; [15]): 30
- Blackgrass plant response rating (blackgrass; [16]): 10
- Plant response rating, Wheat (wheat; [15]): 20
- Wheat plant response rating (wheat; [16]): 10
- Plant response rating, Oat, Wild (wild oat; [15]): 40
- Oat, Wild plant response rating (wild oat; [16]): 10
- Rice plant response rating (rice [3]; visual rating, 13 to 15 days): 90
- Sedge, Umbrella plant response rating ([4]; visual rating, 13 to 15 days): 70
- Ducksalad plant response rating (ducksalad [5]; visual rating, 13 to 15 days): 90
- Barnyardgrass plant response rating (barnyardgrass [6]; visual rating, 13 to 15 days): 80
- Rice plant response rating (rice [7]; [18]): 0
- Rice plant response rating (rice [7]; [19]): 25
- Rice plant response rating (rice [7]; [20]): 55
- Plant response rating, Rice (rice [7]; [21]): 65
- Sedge, Umbrella plant response rating [8, 18]: 70
- Sedge, Umbrella plant response rating [8, 19]: 75
- Sedge, Umbrella plant response rating [8, 20]: 80
- Plant response rating, Sedge, Umbrella [8, 21]: 85
- Ducksalad plant response rating (ducksalad [9]; [18]): 0
- Ducksalad plant response rating (ducksalad [9]; [19]): 30
- Ducksalad plant response rating (ducksalad [9]; [20]): 65
- Plant response rating, Ducksalad (ducksalad [9]; [21]): 70
- Barnyardgrass plant response rating (barnyardgrass [10]; [18]): 0
- Barnyardgrass plant response rating (barnyardgrass [10]; [19]): 25
- Barnyardgrass plant response rating (barnyardgrass [10]; [20]): 65
- Plant response rating, Barnyardgrass (barnyardgrass [10]; [21]): 70

Compound: CCN1N=C(C(C)(C)C)CC1C(=O)Nc1cc(C(=O)N2CCCCC2)ccc1F (racemic) [Compound 331]
- Plant response rating (0 to 100 scale), Barnyardgrass (barnyardgrass [1]; [22]): 60
- Barnyardgrass plant response rating (barnyardgrass [1]; [23]): 10
- Plant response rating, Barnyardgrass (barnyardgrass [1]; [24]): 70
- Barnyardgrass plant response rating (barnyardgrass [1]; [25]): 20
- Plant response rating (0 to 100 scale), Surinam Grass (Surinam grass; [26]): 40
- Surinam Grass plant response rating (Surinam grass; [27]): 10
- Plant response rating, Surinam Grass (Surinam grass; [28]): 60
- Surinam Grass plant response rating (Surinam grass; [29]): 20
- Plant response rating (0 to 100 scale), Cocklebur (cocklebur; [22]): 0
- Cocklebur plant response rating (cocklebur; [23]): 10
- Plant response rating, Cocklebur (cocklebur; [24]): 0
- Cocklebur plant response rating (cocklebur; [25]): 30
- Plant response rating (0 to 100 scale), Corn (corn; [22]): 20
- Corn plant response rating (corn; [23]): 0
- Plant response rating, Corn (corn; [24]): 40
- Corn plant response rating (corn; [25]): 0
- Plant response rating (0 to 100 scale), Crabgrass, Large (large crabgrass; [22]): 60
- Crabgrass, Large plant response rating (large crabgrass; [23]): 10
- Plant response rating, Crabgrass, Large (large crabgrass; [24]): 80
- Crabgrass, Large plant response rating (large crabgrass; [25]): 10
- Plant response rating (0 to 100 scale), Foxtail, Giant (giant foxtail; [22]): 20
- Foxtail, Giant plant response rating (giant foxtail; [23]): 0
- Plant response rating, Foxtail, Giant (giant foxtail; [24]): 80
- Foxtail, Giant plant response rating (giant foxtail; [25]): 30
- Lambsquarters plant response rating (lambsquarters; [27]): 60
- Plant response rating, Lambsquarters (lambsquarters; [28]): 100
- Lambsquarters plant response rating (lambsquarters; [29]): 70
- Plant response rating (0 to 100 scale), Morningglory (morningglory; [26]): 0
- Morningglory plant response rating (morningglory; [27]): 0
- Plant response rating, Morningglory (morningglory; [28]): 0
- Morningglory plant response rating (morningglory; [29]): 10
- Plant response rating (0 to 100 scale), Pigweed (pigweed; [26]): 40
- Pigweed plant response rating (pigweed; [27]): 10
- Plant response rating, Pigweed (pigweed; [28]): 50
- Pigweed plant response rating (pigweed; [29]): 50
- Plant response rating (0 to 100 scale), Rice (rice [2]; 125 g ai/ha, 0 is no effect, 100 is complete control): 30
- Plant response rating, Rice (rice [2]; 500 g ai/ha, visual rating, 0 = no effect, 100 = complete control): 40
- Plant response rating (0 to 100 scale), Velvetleaf (velvetleaf; [26]): 20
- Velvetleaf plant response rating (velvetleaf; [27]): 10
- Plant response rating, Velvetleaf (velvetleaf; [28]): 80
- Velvetleaf plant response rating (velvetleaf; [29]): 20
- Blackgrass plant response rating (blackgrass; [27]): 10
- Blackgrass plant response rating (blackgrass; [29]): 20
- Wheat plant response rating (wheat; [27]): 20
- Wheat plant response rating (wheat; [29]): 20
- Oat, Wild plant response rating (wild oat; [27]): 10
- Oat, Wild plant response rating (wild oat; [29]): 30
- Rice plant response rating (rice [3]): 60
- Sedge, Umbrella plant response rating [4]: 90
- Ducksalad plant response rating (ducksalad [5]): 90
- Barnyardgrass plant response rating (barnyardgrass [6]): 80
- Rice plant response rating (rice [7]; 62 g ai/ha, scale 0 to 100): 0
- Rice plant response rating (rice [7]; [30]): 15
- Rice plant response rating (rice [7]; [20]): 50
- Plant response rating, Rice (rice [7]; [21]): 65
- Sedge, Umbrella plant response rating ([8]; 62 g ai/ha, scale 0 to 100): 0
- Sedge, Umbrella plant response rating [8, 30]: 20
- Sedge, Umbrella plant response rating [8, 20]: 25
- Plant response rating, Sedge, Umbrella [8, 21]: 65
- Ducksalad plant response rating (ducksalad [9]; 62 g ai/ha, scale 0 to 100): 0
- Ducksalad plant response rating (ducksalad [9]; [30]): 50
- Ducksalad plant response rating (ducksalad [9]; [20]): 65
- Plant response rating, Ducksalad (ducksalad [9]; [21]): 85
- Barnyardgrass plant response rating (barnyardgrass [10]; [18]): 0
- Barnyardgrass plant response rating (barnyardgrass [10]; [30]): 10
- Barnyardgrass plant response rating (barnyardgrass [10]; [20]): 40
- Plant response rating, Barnyardgrass (barnyardgrass [10]; [21]): 65
